These results are taken from ChEMBL document CHEMBL1201862, “PubChem BioAssay data set” (2004).

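A five-concentration, 48-hour dose response in 96-well plates underlies each endpoint, interpolated linearly between surrounding concentrations. Here, GI50 denotes the concentration required for 50% inhibition of growth.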 Calls of active or inactive are those of the source. Cut-off read from the data, not from the text of the source: active = GI50 up to about 1.1 µM and inactive = higher.

What all share (assay): growth of human tumour cells (NCI), 48 h
Assay [1] relates to ACHN.
The test system of assay [2] is HOP-62.
Assay [3] concerns HT-29.
Assay [4] has as its system SK-MEL-5.
Assay [5] has as its system RXF 393.
The test system of assay [6] is UACC-257.
In assay [7] the test system is EKVX.
For assay [8], the system named is SN12C.
Assay [9] concerns SF-295.
Assay [10] relates to DU-145.
The subject of assay [11] is LOX IMVI.
In assay [12] the test system is SK-MEL-2.
Assay [13] deals with T47D.
The subject of assay [14] is NCI/ADR-RES.
The test system of assay [15] is KM12.
Assay [16] has as its system OVCAR-3.
The test system of assay [17] is A549.
For assay [18], the system named is U-251.
The subject of assay [19] is HOP-92.
In assay [20] the test system is NCI-H460.

On to `Clc1ccc(/C=N/C23CC4CC(CC(C4)C2)C3)cc1Cl`, for which the GI50 in assay [1], in assay [2], in assay [3], in assay [4], in assay [5] and in [6] was > 10 µM (inactive) in each case. Also, the GI50 in assay [7], in assay [8], in assay [9], in assay [10], in [11] and in assay [12] was > 10 µM (inactive) each time. Besides, the GI50 in [13], in assay [14], in [15], in [16], in assay [17] and in [18] was > 10 µM (inactive) each time. The GI50 in assay [19] and in assay [20] was > 10 µM (inactive) in each case.
As to `COC(=O)c1cc(C#N)[nH]c1-c1cc(Br)cs1`, the GI50 was 19.6 µM (inactive) in assay [1]; 11.1 µM (inactive) in assay [2]; 14.2 µM (inactive) in assay [3]; 7.73 µM (inactive) in assay [4]; 5.32 µM (inactive) in [5]; 11.4 µM (inactive) in assay [6]. Also, the GI50 in assay [7] is 16.1 µM (inactive); in assay [8], 14.9 µM (inactive); in assay [9], 10 µM (inactive); in assay [10], 13.3 µM (inactive); in assay [11], 11.3 µM (inactive); in assay [12], 12.8 µM (inactive). Moreover, the GI50 is 2.13 µM (inactive) in assay [13]; 13.4 µM (inactive) in [14]; 20.7 µM (inactive) in [15]; 4.78 µM (inactive) in [16]; 10.5 µM (inactive) in [17]; 13.3 µM (inactive) in assay [18]. For the same compound, the GI50 in assay [19] was 3.61 µM (inactive); in assay [20], 19.8 µM (inactive).
Consider `CC(=O)NNc1nc(C)c(C(/C=C/c2ccc(NC(C)=O)cc2)=N/NS(=O)(=O)c2ccc(C)cc2)s1`, for which the GI50 in [1], in [2], in [3], in [4], in assay [5] and in [6] was > 100 µM (inactive) throughout. In addition, the GI50 is > 100 µM (inactive) in [7]; > 100 µM (inactive) in assay [8]; 27.9 µM (inactive) in assay [9]; > 100 µM (inactive) in assay [10]; > 100 µM (inactive) in [11]; > 100 µM (inactive) in assay [12]. For the same compound, the GI50 in assay [13], in assay [14], in assay [15], in [16], in assay [17] and in [18] was > 100 µM (inactive) throughout. Also, the GI50 in [19] and in assay [20] was > 100 µM (inactive) in each case.
As to `CCC1c2[nH]c3ccccc3c2C[C@H]2C(=O)NC(CCCCNC(=O)OC(C)(C)C)C(=O)N12` (stereo not given in full), the GI50 is 35.9 µM (inactive) in assay [1]; 35.4 µM (inactive) in [2]; 30.5 µM (inactive) in assay [3]; 20.7 µM (inactive) in assay [4]; 30.5 µM (inactive) in [5]; 21.2 µM (inactive) in assay [6]. For the same compound, the GI50 in assay [7] was 42 µM (inactive); in [8] it was 27.5 µM (inactive); in [9], 22.9 µM (inactive); in assay [10] it was 48.4 µM (inactive); in [11], 24.8 µM (inactive); in [12], 26.6 µM (inactive). Besides, the GI50 in assay [13] is 31 µM (inactive); in assay [14] it was 25.7 µM (inactive); in assay [15] it was 18.5 µM (inactive); in assay [16], 18.4 µM (inactive); in [17], 34.3 µM (inactive); in [18], 38.5 µM (inactive). The GI50 was 34 µM (inactive) in [19] and 30.1 µM (inactive) in assay [20].
In the case of `Cn1nnc2c(C(N)=S)ncn2c1=O`, the GI50 in assay [1], in [2], in assay [3], in [4], in assay [5] and in assay [6] was > 100 µM (inactive) each time. For the same compound, the GI50 in assay [7] was > 100 µM (inactive); in assay [8], > 100 µM (inactive); in assay [9], 74.1 µM (inactive); in [10], > 100 µM (inactive); in assay [11], > 100 µM (inactive); in assay [12] it was > 100 µM (inactive). In addition, the GI50 in assay [13], in assay [14], in assay [15], in assay [16], in assay [17] and in assay [18] was > 100 µM (inactive) in each case. Also, the GI50 in [19] and in assay [20] was > 100 µM (inactive) throughout.
For the compound `O=C(NCCCCCCNC(=O)c1cccc2ccccc12)Nc1cccc2ccccc12`, the GI50 in assay [1], in assay [2], in assay [3], in assay [4], in assay [5] and in assay [6] was > 100 µM (inactive) in each case. Moreover, the GI50 in assay [7], in [8], in assay [9], in [10], in [11] and in assay [12] was > 100 µM (inactive) throughout. For the same compound, the GI50 in [13], in [14], in assay [15], in [16], in assay [17] and in [18] was > 100 µM (inactive) each time. Further, the GI50 in [19] and in [20] was > 100 µM (inactive) throughout.
With `O=C1C(Cl)=C(N2CCN(C3=C(Cl)C(=O)c4ccccc4C3=O)CC2)C(=O)c2ccccc21`, the GI50 in [1] was 1.64 µM (inactive); in [2], 12.4 µM (inactive); in [3] it was 2.23 µM (inactive); in assay [4], 1.79 µM (inactive); in [5], 1.63 µM (inactive); in assay [6] it was 1.46 µM (inactive). In addition, the GI50 in assay [7] was 1.79 µM (inactive); in [8] it was 1.69 µM (inactive); in assay [9], 7.62 µM (inactive); in assay [10] it was 4.91 µM (inactive); in assay [11], 1.71 µM (inactive); in [12], 1.74 µM (inactive). In addition, the GI50 in [13] is 0.729 µM (active); in assay [14] it was 1.92 µM (inactive); in assay [15] it was 4.81 µM (inactive); in assay [16], 1.6 µM (inactive); in assay [17] it was 12.1 µM (inactive); in [18] it was 3.13 µM (inactive). Moreover, the GI50 in assay [19] was 1.04 µM (active); in assay [20], 3.54 µM (inactive).
With `C=CC/N=C(\S)Nc1sc2c(c1C(=O)OCC)CC(C)CC2` (stereo not given), the GI50 in assay [1] was 22.9 µM (inactive); in assay [2], 23.1 µM (inactive); in assay [3], 21.5 µM (inactive); in assay [4], 16.3 µM (inactive); in [5], 26.5 µM (inactive); in [6] it was 20.8 µM (inactive). Further, the GI50 is 28.1 µM (inactive) in assay [7]; 29.9 µM (inactive) in assay [8]; 21.1 µM (inactive) in assay [9]; 30.6 µM (inactive) in assay [10]; 32.9 µM (inactive) in assay [11]; 21.2 µM (inactive) in assay [12]. The GI50 in [13] is 21.4 µM (inactive); in assay [14], 31.1 µM (inactive); in [15], 34.8 µM (inactive); in assay [16] it was 20.3 µM (inactive); in [17], 24.8 µM (inactive); in assay [18] it was 32.6 µM (inactive). The GI50 in assay [19] is 33 µM (inactive); in assay [20], 20.8 µM (inactive).
Turning to `O=C(O)c1ccccc1C(=O)OCC1CCCN2CCCCC12` (stereo not given), the GI50 in [1], in assay [2], in assay [3], in assay [4], in [5] and in assay [6] was > 100 µM (inactive) in each case. Also, the GI50 in [7], in assay [8], in [9], in assay [10], in [11] and in assay [12] was > 100 µM (inactive) in each case. The GI50 in [13], in [14], in [15], in [16], in assay [17] and in [18] was > 100 µM (inactive) in each case. The GI50 in assay [19] and in assay [20] was > 100 µM (inactive) each time.
For the compound `CCCCCCSC[C@H](OC(C)=O)[C@@H](OC(C)=O)[C@@H](OC(C)=O)[C@@H](COC(C)=O)OC(C)=O`, the GI50 is > 100 µM (inactive) in assay [1]; > 100 µM (inactive) in [2]; > 100 µM (inactive) in assay [3]; 23.4 µM (inactive) in [4]; > 100 µM (inactive) in [5]; > 100 µM (inactive) in assay [6]. For the same compound, the GI50 in assay [7], in assay [8], in [9], in [10], in [11] and in [12] was > 100 µM (inactive) in each case. Besides, the GI50 in [13] was 38.6 µM (inactive); in assay [14] it was > 100 µM (inactive); in assay [15], 41.9 µM (inactive); in [16], 80.9 µM (inactive); in [17], 71.1 µM (inactive); in assay [18] it was > 100 µM (inactive). Further, the GI50 in assay [19] and in assay [20] was > 100 µM (inactive) in each case.
